Results as given in patent US9409952B2, “Peptide-compound cyclization method” (Chugai Seiyaku Kabushiki Kaisha, priority 2011, dated 2016).
Starred links: 1 amine or outer side, 2 acyl side, 3 side chain; linkers in the order of their positions; H or OH if unused. Positions of bridges follow the written chain, without caps; N, C: chain ends. Non-standard residues stand in square brackets, D forms with d. Residues, ends and D or L forms follow the SMILES beside them. *: point of attachment. Ala(1H-tetrazol-5-yl) = N[C@@H](Cc1nnn[nH]1)C(=O)O; Arg(Me2s) = CN=C(NC)NCCC[C@H](N)C(=O)O; X2 = O=C(C[C@H](N[*:1])C(F)(F)F)[*:2]; Lys(Me2) = CN(C)CCCC[C@H](N)C(=O)O; NMeF = CN[C@@H](Cc1ccccc1)C(=O)O; NMeL = CN[C@@H](CC(C)C)C(=O)O; NMeS = CN[C@@H](CO)C(=O)O; NMeA = CN[C@@H](C)C(=O)O; Piperidide = C1CCN(*)CC1; dNMeA = CN[C@H](C)C(=O)O; β3hA = C[C@H](N)CC(=O)O; Abu = CC[C@H](N)C(=O)O; Sar = CNCC(=O)O

Assay: PAMPA (parallel artificial membrane permeability assay)
Type: in vitro ADME
Settings: PAMPA
In short: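 Artificial membrane was 10% (w/v) egg lecithin plus 0.5% (w/v) cholesterol in dodecane on a PVDF filter. A 10 mM DMSO stock was added at 0.5% (v/v) to donor buffer (50 mM MOPSO, pH 6.5, 5.0% glycocholic acid). After 18 h at 37 °C, LC/MS or LC/UV gave donor and acceptor levels for Pe.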

Structure (SMILES)	Papp at 18 h, 50 µM
NS(=O)(=O)c1cc2c(cc1Cl)NCNS2(=O)=O [hydrochlorothiazide, reference compound]	0.6 ×10⁻⁶ cm/s
COCCc1ccc(OCC(O)CNC(C)C)cc1 (stereo not shown) [metoprolol, reference compound]	29 ×10⁻⁶ cm/s

Same assay, conditions: PAMPA, pH 6.5

Structure (SMILES)	Papp at 18 hours, 50 µM
CC(C)C[C@@H]1NC(=O)[C@H](CCCCN(C)C)NC(=O)[C@@H]2CCCN2C(=O)[C@H](C)NC(=O)[C@H](CC(C)C)N(C)C(=O)[C@H](Cc2ccccc2)NC(=O)[C@H](CC(C)C)N(C)C(=O)[C@H](CC(C)C)N(C)C(=O)[C@H](Cc2ccccc2)NC(=O)CN(C)C(=O)C[C@@H](C(=O)N(C)[C@@H](Cc2ccccc2)C(=O)N[C@@H](C)C(=O)N2CCCCC2)NC1=O [DP-593] ([Sar]F[NMeL][NMeL]F[NMeL]AP[Lys(Me2)]LD[NMeF]A-Piperidide; lactam N-11)	1.1 ×10⁻⁶ cm/s
CC(C)C[C@@H]1NC(=O)[C@H](CCC(=O)O)NC(=O)[C@H](Cc2ccccc2)N(C)C(=O)[C@H](CC(C)C)NC(=O)[C@H](CC(C)C)N(C)C(=O)[C@H](Cc2ccccc2)NC(=O)[C@H](CC(C)C)N(C)C(=O)[C@H](CC(C)C)N(C)C(=O)[C@H](Cc2ccccc2)NC(=O)CN(C)C(=O)C[C@@H](C(=O)N(C)[C@@H](Cc2ccccc2)C(=O)N[C@@H](C)C(=O)N2CCCCC2)NC1=O [DP-596] ([Sar]F[NMeL][NMeL]F[NMeL]L[NMeF]ELD[NMeF]A-Piperidide; lactam N-11)	3.2 ×10⁻⁶ cm/s

Same assay, conditions: PAMPA; membrane permeation rate (Pe); 50 mM MOPSO buffer pH 6.5 with 5.0% glycocholic acid, 37° C., 18 hours; read-out: iPAMPA Pe

Structure (SMILES)	Papp at 18 hours, 50 µM
CC(C)C[C@H]1C(=O)N(C)[C@@H](Cc2ccccc2)C(=O)N(C)[C@@H](CC(C)C)C(=O)N[C@H](C(=O)N(C)[C@@H](Cc2ccccc2)C(=O)N[C@@H](Cc2ccccc2)C(=O)N2CCCCC2)CC(=O)N[C@H](C(C)C)C(=O)N[C@@H](C)C(=O)N[C@@H]([C@@H](C)O)C(=O)N(C)[C@@H](C)C(=O)N[C@@H](Cc2ccccc2)C(=O)N1C [DP-577] ([dV]AT[NMeA]F[NMeL][NMeF][NMeL]D[NMeF]F-Piperidide; lactam N-9)	0.94 ×10⁻⁶ cm/s
CC[C@H](C)[C@H](NC(=O)[C@H](C)N(C)C(=O)[C@@H]1CC(=O)N(C)[C@H](C)C(=O)N(C)[C@@H](C)C(=O)N(C)[C@@H](Cc2ccccc2)C(=O)N(C)[C@@H](CC(C)C)C(=O)N[C@@H]([C@@H](C)O)C(=O)N(C)[C@@H](C)C(=O)N(C)[C@@H](CC(C)C)C(=O)N[C@@H](CO)C(=O)N1)C(=O)N1CCC[C@H]1C(=O)N[C@H](C(=O)N[C@@H](C)C(=O)N1CCCCC1)C(C)C [DP-578] ([dNMeA][NMeA][NMeF][NMeL]T[NMeA][NMeL]SD[NMeA]IPVA-Piperidide; lactam N-9)	3.4 ×10⁻⁶ cm/s
CC(C)C[C@H]1C(=O)N(C)[C@@H](CC(C)C)C(=O)N[C@H](C(=O)N(C)[C@@H](Cc2ccccc2)C(=O)N[C@@H](C)C(=O)N2CCCCC2)CC(=O)N[C@H](C(C)C)C(=O)N(C)[C@@H](C)C(=O)N(C)[C@@H](Cc2ccccc2)C(=O)N(C)[C@@H](CC(C)C)C(=O)N[C@@H](Cc2c[nH]cn2)C(=O)N(C)CC(=O)N[C@@H](C(C)C)C(=O)N1C [DP-585] ([dV][NMeA][NMeF][NMeL]H[Sar]V[NMeL][NMeL]D[NMeF]A-Piperidide; lactam N-10)	15 ×10⁻⁶ cm/s
CC(C)C[C@@H]1NC(=O)CN(C)C(=O)[C@H](CCCCN(C)C)NC(=O)[C@H](CC(C)C)N(C)C(=O)[C@H](Cc2ccccc2)N(C)C(=O)[C@H](C)N(C)C(=O)[C@@H](C(C)C)NC(=O)C[C@@H](C(=O)N(C)[C@@H](Cc2ccccc2)C(=O)N[C@@H](C)C(=O)N2CCCCC2)NC(=O)[C@H](CC(C)C)N(C)C(=O)[C@H](CC(C)C)N(C)C1=O [DP-587] ([dV][NMeA][NMeF][NMeL][Lys(Me2)][Sar]L[NMeL][NMeL]D[NMeF]A-Piperidide; lactam N-10)	3.3 ×10⁻⁶ cm/s
CC(C)C[C@@H]1NC(=O)[C@H](CC(C)C)N(C)C(=O)[C@H](CCCCN(C)C)NC(=O)[C@H](CC(C)C)N(C)C(=O)[C@H](Cc2ccccc2)N(C)C(=O)[C@H](CC(C)C)N(C)C(=O)[C@@H](C(C)C)NC(=O)C[C@@H](C(=O)N(C)[C@@H](Cc2ccccc2)C(=O)N[C@@H](C)C(=O)N2CCCCC2)NC(=O)[C@H](CC(C)C)N(C)C(=O)[C@H](CC(C)C)N(C)C1=O [DP-588] ([dV][NMeL][NMeF][NMeL][Lys(Me2)][NMeL]L[NMeL][NMeL]D[NMeF]A-Piperidide; lactam N-10)	0.6 ×10⁻⁶ cm/s
C/N=C(\NC)NCCC[C@@H]1NC(=O)[C@H](CC(C)C)N(C)C(=O)[C@H](Cc2ccccc2)N(C)C(=O)[C@H](C)N(C)C(=O)[C@@H](C(C)C)NC(=O)C[C@@H](C(=O)N(C)[C@@H](Cc2ccccc2)C(=O)N[C@@H](C)C(=O)N2CCCCC2)NC(=O)[C@H](CC(C)C)N(C)C(=O)[C@H](CC(C)C)N(C)C(=O)[C@H](C(C)C)NC(=O)CN(C)C1=O [DP-590] ([dV][NMeA][NMeF][NMeL][Arg(Me2s)][Sar]V[NMeL][NMeL]D[NMeF]A-Piperidide; lactam N-10)	1.4 ×10⁻⁶ cm/s
CC(C)C[C@@H]1NC(=O)[C@H](CCCCN(C)C)NC(=O)[C@H](Cc2ccccc2)N(C)C(=O)[C@H](CC(C)C)NC(=O)[C@H](CC(C)C)N(C)C(=O)[C@H](Cc2ccccc2)NC(=O)[C@H](CC(C)C)N(C)C(=O)[C@H](CC(C)C)N(C)C(=O)[C@H](Cc2ccccc2)NC(=O)CN(C)C(=O)C[C@@H](C(=O)N(C)[C@@H](Cc2ccccc2)C(=O)N[C@@H](C)C(=O)N2CCCCC2)NC1=O [DP-594] ([Sar]F[NMeL][NMeL]F[NMeL]L[NMeF][Lys(Me2)]LD[NMeF]A-Piperidide; lactam N-11)	1.3 ×10⁻⁶ cm/s
CC(C)C[C@@H]1NC(=O)[C@H](CC(C)C)N(C)C(=O)[C@H](C(C)C)NC(=O)C[C@H](C)NC(=O)CN(C)C(=O)[C@H](CC(C)C)NC(=O)[C@H](CO)N(C)C(=O)[C@H](CC(C)C)N(C)C(=O)[C@H](CC(C)C)N(C)C(=O)[C@H](CC(C)C)N(C)C(=O)[C@@H](CC(C)C)NC1=O [DP-640] (cyclo(L[Sar][β3hA]V[NMeL]L[dL][NMeL][NMeL][NMeL][NMeS]))	50 ×10⁻⁶ cm/s
CC(C)C[C@H]1C(=O)N[C@@H](C(C)C)C(=O)N(C)[C@@H](CC(C)C)C(=O)N[C@@H](C)C(=O)N[C@H](C)C(=O)N(C)[C@@H](CC(C)C)C(=O)N(C)[C@@H](CC(C)C)C(=O)N(C)[C@@H](CC(C)C)C(=O)N(C)[C@@H](CO)C(=O)N[C@H](C(F)(F)F)CC(=O)N(C)CC(=O)N1C [DP-654] (cyclo(A[dA][NMeL][NMeL][NMeL][NMeS][X2][Sar][NMeL]V[NMeL]))	23 ×10⁻⁶ cm/s
CC[C@@H]1NC(=O)[C@H](CO)N(C)C(=O)[C@H](CC(C)C)N(C)C(=O)[C@H](CC(C)C)N(C)C(=O)[C@H](CC(C)C)N(C)C(=O)[C@@H](C)NC(=O)[C@H](CC(C)C)NC(=O)C[C@@H](C(F)(F)F)NC(=O)[C@H](C(C)C)NC(=O)[C@H](CC(C)C)N(C)C(=O)CN(C)C1=O [DP-656] (cyclo([Abu][Sar][NMeL]V[X2]L[dA][NMeL][NMeL][NMeL][NMeS]))	30 ×10⁻⁶ cm/s
CC[C@H](C)[C@@H]1NC(=O)[C@H](CC(C)C)N(C)C(=O)CN(C)C(=O)[C@H]([C@@H](C)O)NC(=O)[C@H](C)N(C)C(=O)C[C@@H](C(=O)N(C)[C@@H](CC(C)C)C(=O)N[C@@H](C)C(=O)N2CCCCC2)NC(=O)[C@H](CC(C)C)N(C)C(=O)[C@H](Cc2ccccc2)N(C)C(=O)[C@H](CC(C)C)N(C)C1=O [DP-663] ([NMeA]T[Sar][NMeL]I[NMeL][NMeF][NMeL]D[NMeL]A-Piperidide; lactam N-9)	43 ×10⁻⁶ cm/s
CC(C)C[C@@H]1NC(=O)[C@H](Cc2ccccc2)N(C)C(=O)[C@H](Cc2ccccc2)N(C)C(=O)[C@H](C(C)C)NC(=O)[C@H](CC(C)C)N(C)C(=O)[C@H](Cc2nn[nH]n2)NC(=O)[C@H](CC(C)C)N(C)C(=O)C[C@@H](C(=O)N2CCCCC2)NC(=O)[C@H](CC(C)C)N(C)C1=O [DP-907] ([NMeL][Ala(1H-tetrazol-5-yl)][NMeL]V[NMeF][NMeF]L[NMeL]D-Piperidide; lactam N-9)	21 ×10⁻⁶ cm/s
CC[C@H](C)[C@H](NC(=O)[C@H](CC(C)C)NC(=O)[C@H](Cc1ccccc1)NC(=O)[C@@H]1CCCN1C(=O)[C@H](CC(C)C)NC(=O)[C@@H]1CC(=O)N[C@@H](Cc2ccccc2)C(=O)N(C)[C@@H](Cc2ccccc2)C(=O)N(C)[C@@H](CC(C)C)C(=O)N[C@@H]([C@@H](C)O)C(=O)N(C)[C@@H](C)C(=O)N(C)[C@@H](CC(C)C)C(=O)N1)C(=O)N1CCCCC1 [DP-910] (F[NMeF][NMeL]T[NMeA][NMeL]DLPFLI-Piperidide; lactam N-7)	0.16 ×10⁻⁶ cm/s
CC[C@H](C)[C@@H]1NC(=O)[C@H](CC(C)C)N(C)C(=O)[C@H](C)N(C)C(=O)[C@H](Cc2ccccc2)N(C)C(=O)[C@@H](C)N(C)C(=O)C[C@@H](C(=O)N2CCCCC2)NC(=O)[C@H](CC(C)C)N(C)C(=O)[C@H]([C@@H](C)O)NC(=O)[C@H](CO)NC(=O)[C@H](CC(C)C)NC(=O)[C@H](C)N(C)C(=O)[C@H](CC(C)C)N(C)C(=O)[C@H](Cc2ccccc2)NC(=O)[C@H](CC(C)C)N(C)C1=O [DP-959] ([dNMeA][NMeF][NMeA][NMeL]I[NMeL]F[NMeL][NMeA]LST[NMeL]D-Piperidide; lactam N-14)	2.9 ×10⁻⁶ cm/s

Same assay, conditions: membrane permeation rate (Pe); 50 mM MOPSO buffer pH 6.5 with 5.0% glycocholic acid, 37° C., 18 hours

Structure (SMILES)	iPAMPA Pe
C/N=C(\NC)NCCC[C@@H]1NC(=O)[C@H](Cc2ccccc2)N(C)C(=O)[C@H](CC(C)C)NC(=O)[C@H](CC(C)C)N(C)C(=O)[C@H](Cc2ccccc2)NC(=O)[C@H](CC(C)C)N(C)C(=O)[C@H](CC(C)C)N(C)C(=O)[C@H](Cc2ccccc2)NC(=O)CN(C)C(=O)C[C@@H](C(=O)N(C)[C@@H](Cc2ccccc2)C(=O)N[C@@H](C)C(=O)N2CCCCC2)NC(=O)[C@H](CC(C)C)NC1=O [DP-598] ([Sar]F[NMeL][NMeL]F[NMeL]L[NMeF][Arg(Me2s)]LD[NMeF]A-Piperidide; lactam N-11)	1.0E−07
